Laboratory results from US20260357349A1, “METHODS OF IDENTIFYING AND TREATING CANCER” (Agency for Science, Technology and Research, priority 2022, published 2026).

Test system: RELA
Assay: Total RELA protein level after bortezomib
Format: cell-based, human
Settings: bortezomib treatment
Procedure: Data are presented as median+/−25%. Lower whisker is smallest observation greater than or equal to 25% quantile-1.5*interquantile range (IQR). Upper whisker represents the largest observation less than or equal to 75%+1.5*IQR. Amount of normalized RELA protein in the c) input or d) co-immunoprecipitated with SMARCA4 from 3 independent runs. […]
Cell lines were harvested with cold RIPA lysis buffer (50 mM Tris pH 8, 150 mM NaCl, 0.1% Triton X-100, 0.5% Sodium deoxycholate, 0.1% SDS) with protease inhibitors (Roche) on ice. […] Protein concentration was measured by Pierce BCA protein assay (Life Technologies). […]

## CC(C)C[C@H](NC(=O)[C@H](Cc1ccccc1)NC(=O)c1cnccn1)B(O)O [bortezomib]
  effect on total protein levels of RELA: did not significantly affect
